Assay results reported in patent US12516024B2, “KDM4 inhibitors” (ALBERT-LUDWIGS-UNIVERSITY FREIBURG, priority 2017, dated 2026).

Experiments:
KDM5B = KDM5B (Homo sapiens, UniProt Q9UGL1); test: KDM demethylase inhibition (IC50), KDM5B; format: biochemical; settings: in words
Description: The expression levels in the BCSC cells of the various KDM4 family members were evaluated by western blot analysis. Metzger et al., LSD1 demethylates repressive histone marks to promote and rogen receptor-dependent transcription, 437 Nature 436 (2005). […] These observations indicate that KDM4 are therapeutic targets for treatment of BCSC populations. Accordingly, a screen to characterize KDM4(i) was performed to explore compounds suitable for treating cancers, in particular cancers such as therapy resistant clonal BCSC-originating tumors.

[1] = Pharmacokinetic study iv/po; format: in vivo; settings: dose iv/po 5/10 mg/kg

KDM5B, sequence (Q9UGL1 whole entry): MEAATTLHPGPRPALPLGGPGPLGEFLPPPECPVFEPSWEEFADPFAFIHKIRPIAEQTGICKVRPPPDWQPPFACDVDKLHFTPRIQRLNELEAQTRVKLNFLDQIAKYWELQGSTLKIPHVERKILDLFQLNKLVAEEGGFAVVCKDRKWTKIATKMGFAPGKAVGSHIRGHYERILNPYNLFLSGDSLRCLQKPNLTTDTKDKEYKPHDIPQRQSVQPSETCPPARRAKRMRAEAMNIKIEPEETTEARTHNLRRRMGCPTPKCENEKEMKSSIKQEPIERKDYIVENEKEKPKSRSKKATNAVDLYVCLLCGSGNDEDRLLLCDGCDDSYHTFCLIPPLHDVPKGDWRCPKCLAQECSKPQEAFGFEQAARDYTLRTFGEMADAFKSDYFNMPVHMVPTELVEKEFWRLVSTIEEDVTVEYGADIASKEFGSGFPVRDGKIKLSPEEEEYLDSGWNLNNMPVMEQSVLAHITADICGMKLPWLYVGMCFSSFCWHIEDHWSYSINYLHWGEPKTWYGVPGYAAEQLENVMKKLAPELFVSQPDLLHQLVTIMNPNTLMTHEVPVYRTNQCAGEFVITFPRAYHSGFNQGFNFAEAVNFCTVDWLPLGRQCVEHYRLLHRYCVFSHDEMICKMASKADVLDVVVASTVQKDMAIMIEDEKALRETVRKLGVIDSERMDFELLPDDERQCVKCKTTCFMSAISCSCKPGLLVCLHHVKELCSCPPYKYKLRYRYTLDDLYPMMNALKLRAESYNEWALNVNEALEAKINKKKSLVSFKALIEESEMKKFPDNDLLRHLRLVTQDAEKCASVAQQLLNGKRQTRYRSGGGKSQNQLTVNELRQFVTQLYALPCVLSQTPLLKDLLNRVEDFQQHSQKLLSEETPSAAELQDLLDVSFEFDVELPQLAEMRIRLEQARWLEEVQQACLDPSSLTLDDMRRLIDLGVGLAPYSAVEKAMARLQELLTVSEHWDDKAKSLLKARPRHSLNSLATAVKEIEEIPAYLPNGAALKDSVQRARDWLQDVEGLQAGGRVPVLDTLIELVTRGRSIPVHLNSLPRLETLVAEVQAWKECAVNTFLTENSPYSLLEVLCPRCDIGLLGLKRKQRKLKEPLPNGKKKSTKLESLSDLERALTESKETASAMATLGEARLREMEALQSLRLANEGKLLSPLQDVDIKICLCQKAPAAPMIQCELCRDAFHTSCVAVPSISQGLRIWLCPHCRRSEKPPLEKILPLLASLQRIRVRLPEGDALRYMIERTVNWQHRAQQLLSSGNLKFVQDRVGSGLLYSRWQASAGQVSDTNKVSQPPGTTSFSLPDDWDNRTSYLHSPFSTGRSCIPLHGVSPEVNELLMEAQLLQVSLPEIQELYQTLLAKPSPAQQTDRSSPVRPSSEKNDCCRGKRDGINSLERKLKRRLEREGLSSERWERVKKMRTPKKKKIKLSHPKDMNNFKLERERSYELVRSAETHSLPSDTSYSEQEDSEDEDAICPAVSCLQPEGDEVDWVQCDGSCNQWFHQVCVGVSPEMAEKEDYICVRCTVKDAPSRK

- effect on the demethylase activity of KDM5B (KDM5B): weak effect
- bioavailability ([1]; plasma, read-out: F % (bioavailability)): 30.4%
- po ½ ([1]; po): 2.57 h
Structure (SMILES): CN(c1ccccc1)c1ccc2c(c1)CCC[C@H]2CNc1cnccc1C(=O)O [Compound I, 3-({[(1R)-6-[methyl(phenyl)amino]-1,2,3,4-tetrahydronaphthalen-1-yl]methyl}amino)pyridine-4-carboxylic acid]
